Here are results for twelve compounds from US20250011311A1, “AMIDO HETEROAROMATIC COMPOUNDS” (AstraZeneca AB, priority 2022, published 2025).

In assay [1] the target is recombinant 17bHSD13 (N2-K300) (Homo sapiens (Human), UniProt Q7Z5P4). Kind of assay: In Vitro 17bHSD13 Enzyme Assay. To be noted: 80 nM 17bHSD13, 0.5 mM NAD, 20 μM Estradiol, 2.5 h; estradiol to estrone by LC-MS/MS. The assay is classed as biochemical. The procedure:
In Vitro 17bHSD13 Enzyme Assay
The enzyme reaction was initiated by addition, using CERTUS-FLEX dispenser (GYGER), of 20 μl of substrate solution containing NAD (SIGMA, N1511) and Estradiol (SIGMA, E8875). […] Final assay conditions were 80 nM of 17bHSD13, 0.5 mM of NAD, 20 μM Estradiol and various concentrations of compound in buffer (5 mM EDTA (TEKNOVA E0306), 0.01% DDM (AFFYMETRIX D310) in 50 mM Tris-Cl, pH 7.4).
(§1) SCIEX LC-MS/MS system: Sample was injected with CTC analytical injector, SHIMATZU LC pumps LC20 and analyzed on the SCIEX API 5000 LCMSMS system with the following settings. […] The mobile phases consist of A (water with 0.2% formic acid) and B (acetonitrile with 0.2% formic acid). The LC gradient profile is as follows: 50% B during 0 to 0.5 min, a linear increase to 100% B during 0.5 to 1 min, hold at 100% B during 1 to 1.6 min then back to 50% B from 1.6 to 2 min. […] Detection was performed on a API 5000 LC/MS/MS system with a triple quadrupole mass spectrometer, a TURBO V ion source, in multiple reaction monitoring (MRM) mode at positive polarity with APCI probe. […] The dwell times were 100 ms for each transition and a depolarization and collision energy of 100 and 40, respectively. Data from MS signals was using area under curve (AUC). Ratio=Estrone/(Estrone+Estradiol)
(§2) […] […] was used for curve fitting and calculation of IC50 values.
(§3) Compound effect was calculated with the formula below;
(§4) where X represents the effect in the presence of test compound, min is DMSO and max is the maximum inhibition of enzyme using a known inhibitor as control.

Assay [2] has as its target recombinant 17bHSD4 (M1-N311) (Homo sapiens (Human), UniProt P51659). Kind of assay: In Vitro 17bHSD4 Enzyme Assay. The assay is classed as biochemical. To be noted: 40 nM 17bHSD4, 0.125 mM NAD, 15 μM Estradiol, 1.5 h; NADH fluorescence; read-out: 17HSD17b4 Enzyme assay IC50. The procedure: In Vitro 17bHSD4 Enzyme Assay
10 concentration of compounds (0.2 μl) in DMSO was added to GREINER FLUOTRAC 200 384 well plate (781076) using ECHO dispensing (BECKMAN COULTER). 80 nl of 10 mM Estradiol (SIGMA, E8875) was added using Echo dispensing. The enzyme reaction was initiated by addition, using MULTIDROP COMBI dispensing (THERMO FISHER), of 40 μl of a mix containing recombinant 17bHSD4 (M1-N311) and NAD. Final assay conditions were 40 nM of 17bHSD4, 0.125 mM of NAD, 15 μM Estradiol and various concentrations of compound in buffer (5 mM EDTA (TEKNOVA E0306), 0.01% DDM (AFFYMETRIX D310) in 50 mM Tris-Cl, pH 7.4). After each addition plates were centrifuged for 1 min at 150×g (EPPENDORF, 5810R, A-4-81). NADH formation was measured by fluorescence intensity (FI) (Ex360/Em460) at time zero (to) and at 1.5 h (t1) in a PHERASTAR FSX (BMG LABTECH). FI for each sample was calculated as FI at t1 minus FI at t0.
as §2, §3, §4

Assay [3] concerns the target over expressed HSD17β13 in HEK293S cells (Homo sapiens (Human), UniProt Q7Z5P4). Description: In Vitro 17bHSD13 Cell Assay. To be noted: HEK293S cells over expressing HSD17β13; estradiol to estrone conversion, 18 h, LC-MS/MS; read-out: 17bHSD1713 Cell assay IC50. The assay is classed as cell-based. The procedure: In Vitro 17bHSD13 Cell Assay
Inhibition of 17bHSD13 was measured in a cell-based assay with over expressed HSD17β13 in HEK293S cells, measuring estradiol to estrone conversion by LCMS/MS.
Samples were analyzed using LC-MS/MS.
as §1, with “analysed” for “analyzed”
as §2, §3, §4

Assay [4] concerns the target over expressed HSD17β9 in HEK293S cells (Homo sapiens (Human), UniProt Q92781). Kind of assay: In Vitro 17bHSD9 Cell Assay. The assay is classed as cell-based. The conditions noted are these: HEK293S cells over expressing HSD17β9; retinol to retinal conversion, 18 h, LC-MS/MS; read-out: 17bHSD9 Cell assay IC50. The procedure:
In Vitro 17bHSD9 Cell Assay
Inhibition of 17bHSD9 was measured in a cell-based assay with over expressed HSD17β9 in HEK293S cells, measuring retinol to retinal conversion by LCMS/MS.
Cells were plated in 384 well plates (GREINER CELL culture plate 384w black/clear Poly-D-Lysine) at 10 K c/w in 30 μl of culture media (DMEM with GLUTAMAX plus 10% FBS). […] After 18 h of cell culturing for 20 μl of media was transferred using BRAVO dispensing robot (AGILENT) to a GREINER PP 384 well plate (781280) and 40 μl of 50% acetonitrile was added. Samples were analyzed using LC-MS/MS.
SCIEX LC-MS/MS system: Sample was injected with CTC analytical injector, SHIMATZU LC pumps LC20 and analysed on the SCIEX API 5000 LCMSMS system with the following settings. Samples were chromatographed on a WATERS, symmetry, C8, 3.5 μm, 2.1×50 mm) column at constant flow rate of 0.5 mL/min. The mobile phases consists of A (water with 0.2% formic acid) and B (acetonitrile with 0.2% formic acid). The LC gradient profile is as follows: 50% B during 0 to 0.1 min, a linear increase to 100% B during 0.1 to 0.8 min, hold at 100% B during 0.8 to 1.5 min then back to 50% B from 1.5 to 1.6 min and hold during run time. The run time was 2 min with retention times of approximately 1.54 and 1.62 min for Retinol and Retinal, respectively. Detection was performed on a API 5000 LC/MS/MS system with a triple quadrupole mass spectrometer, a TURBO V ion source, in multiple reaction monitoring (MRM) mode at positive polarity with ESI probe. The MRM pairs were m/z 269.3 to m/z 93.0 and m/z 285.2 to 161.0. for Retinol and Retinal, respectively. The dwell times were 100 ms for each transition and a depolarization and collision energy of 50 and 25, respectively. Data from MS signals was using area under curve (AUC). Ratio=Retinal/(Retinal+Retinol).
as §2, §3, §4

recombinant 17bHSD13 (N2-K300), sequence (Q7Z5P4 2-300): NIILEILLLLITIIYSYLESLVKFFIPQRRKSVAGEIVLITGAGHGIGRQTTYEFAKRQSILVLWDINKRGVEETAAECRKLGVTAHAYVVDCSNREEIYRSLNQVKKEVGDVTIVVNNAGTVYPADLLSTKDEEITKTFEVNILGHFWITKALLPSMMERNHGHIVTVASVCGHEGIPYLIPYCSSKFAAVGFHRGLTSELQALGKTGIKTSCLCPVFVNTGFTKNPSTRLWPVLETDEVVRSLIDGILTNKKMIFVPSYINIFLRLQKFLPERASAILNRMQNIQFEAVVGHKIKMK
recombinant 17bHSD4 (M1-N311), sequence (P51659 1-311): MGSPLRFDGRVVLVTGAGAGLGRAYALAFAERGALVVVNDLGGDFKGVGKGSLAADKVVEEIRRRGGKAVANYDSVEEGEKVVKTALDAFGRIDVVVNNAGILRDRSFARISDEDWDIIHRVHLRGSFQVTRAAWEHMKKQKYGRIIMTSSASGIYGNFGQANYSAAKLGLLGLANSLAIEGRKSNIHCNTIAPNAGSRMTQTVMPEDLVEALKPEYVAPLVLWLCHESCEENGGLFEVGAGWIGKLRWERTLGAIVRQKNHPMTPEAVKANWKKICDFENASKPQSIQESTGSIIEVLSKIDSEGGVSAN
over expressed HSD17β13 in HEK293S cells, sequence (Q7Z5P4 20-300): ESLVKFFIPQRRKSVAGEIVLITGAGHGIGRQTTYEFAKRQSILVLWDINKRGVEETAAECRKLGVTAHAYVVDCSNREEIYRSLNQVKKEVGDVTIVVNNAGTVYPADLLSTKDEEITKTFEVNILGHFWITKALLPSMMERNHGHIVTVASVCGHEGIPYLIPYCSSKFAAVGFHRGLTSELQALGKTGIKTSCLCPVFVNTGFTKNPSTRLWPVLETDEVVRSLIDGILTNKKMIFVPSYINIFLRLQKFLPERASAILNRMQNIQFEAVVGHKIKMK
over expressed HSD17β9 in HEK293S cells, sequence (Q92781 whole entry): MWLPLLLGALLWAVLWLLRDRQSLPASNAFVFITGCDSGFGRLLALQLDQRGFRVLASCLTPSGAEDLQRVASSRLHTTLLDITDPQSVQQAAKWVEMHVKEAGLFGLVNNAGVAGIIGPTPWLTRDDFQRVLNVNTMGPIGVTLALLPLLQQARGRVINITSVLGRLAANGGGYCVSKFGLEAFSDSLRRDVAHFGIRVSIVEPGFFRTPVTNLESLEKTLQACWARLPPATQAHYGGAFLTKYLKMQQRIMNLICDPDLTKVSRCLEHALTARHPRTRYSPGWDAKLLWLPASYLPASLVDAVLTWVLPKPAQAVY

The IC50 is the point on the concentration scale where inhibition reaches its midpoint. Regarding `CC1(C)COCCN1C(=O)c1noc(-c2cc(F)c(F)c(O)c2F)n1` [Example 48, (3,3-Dimethylmorpholino)(5-(2,4,5-trifluoro-3-hydroxyphenyl)-1,2,4-oxadiazol-3-yl)methanone], the IC50 was 388 nM in assay [1], over 50000 nM in assay [2], 1100 nM in assay [3] and over 50000 nM in assay [4].

In the case of `C[C@@H]1CN(C(=O)c2nc(-c3cc(F)c(F)c(O)c3F)no2)C[C@H](C)O1` [Example 110, ((2R,6S)-2,6-Dimethylmorpholino)(3-(2,4,5-trifluoro-3-hydroxyphenyl)-1,2,4-oxadiazol-5-yl)methanone], the IC50 in assay [1] is 1010 nM; in assay [2], over 50000 nM; in assay [3] it was 240 nM; in assay [4], over 50000 nM.

With `O=C(c1cc(-c2cc(F)c(F)c(O)c2F)on1)N1CC[C@H](c2ccc(Cl)cc2)C1` [Example 8, (R)-(3-(4-Chlorophenyl)pyrrolidin-1-yl)(5-(2,4,5-trifluoro-3-hydroxyphenyl)isoxazol-3-yl)methanone], the IC50 in assay [1] amounted to 47 nM; in assay [2], 6700 nM; in assay [3] it was 610 nM; in assay [4] it was 25000 nM.

On to `COc1ccc(OC2CCN(C(=O)c3noc(-c4cc(F)c(F)c(O)c4F)n3)CC2)nc1` [Example 68, (4-((5-Methoxypyridin-2-yl)oxy)piperidin-1-yl)(5-(2,4,5-trifluoro-3-hydroxyphenyl)-1,2,4-oxadiazol-3-yl)methanone], for which the concentration for half-maximal inhibition (IC50) in assay [1] was 44 nM; in assay [2], 26300 nM; in assay [3] it was 800 nM; in assay [4], 30400 nM.

As to `N#Cc1c(C(=O)N2CCN(c3nc4ccccc4o3)CC2)noc1-c1cc(F)c(F)c(O)c1F` [Example 23, 3-(4-(Benzo[d]oxazol-2-yl)piperazine-1-carbonyl)-5-(2,4,5-trifluoro-3-hydroxyphenyl)isoxazole-4-carbonitrile], the IC50 in assay [1] was 141 nM; in assay [2], 33900 nM; in assay [3], 930 nM; in assay [4], over 50000 nM.

On to `O=C(c1noc(-c2cc(F)c(F)c(O)c2F)n1)N1CC=C(c2ccccc2)CC1` [Example 62, (4-Phenyl-3,6-dihydropyridin-1(2H)-yl)(5-(2,4,5-trifluoro-3-hydroxyphenyl)-1,2,4-oxadiazol-3-yl)methanone], for which the IC50 in assay [1] stood at 46 nM; in assay [2], 3000 nM; in assay [3], 960 nM; in assay [4] it was 15800 nM.

Turning to `CC(C)C1COCCN1C(=O)c1noc(-c2cc(F)c(F)c(O)c2F)n1` (stereo not drawn) [Example 35, (3-Isopropylmorpholino)(5-(2,4,5-trifluoro-3-hydroxyphenyl)-1,2,4-oxadiazol-3-yl)methanone], the IC50 in assay [1] came to 640 nM; in assay [2] it was 42200 nM; in assay [3] it was 2220 nM; in assay [4], 4200 nM.

Turning to `CC(C)c1noc(C2=CCN(C(=O)c3noc(-c4cc(F)c(F)c(O)c4F)n3)CC2)n1` [Example 107, (4-(3-Isopropyl-1,2,4-oxadiazol-5-yl)-3,6-dihydropyridin-1(2H)-yl)(5-(2,4,5-trifluoro-3-hydroxyphenyl)-1,2,4-oxadiazol-3-yl)methanone], the IC50 came out at 143 nM in assay [1], 10500 nM in assay [2], 370 nM in assay [3] and 5000 nM in assay [4].

Turning to `O=C(c1noc(-c2cc(F)c(F)c(O)c2F)n1)N1CCOC2(CCC2)C1` [Example 52, (5-Oxa-8-azaspiro[3.5]nonan-8-yl)(5-(2,4,5-trifluoro-3-hydroxyphenyl)-1,2,4-oxadiazol-3-yl)methanone], the IC50 in assay [1] was determined as 281 nM; in assay [2], 34600 nM; in assay [3], 480 nM; in assay [4] it was 1200 nM.

For the compound `O=C(c1nnc(-c2ccc(F)c(O)c2)o1)N1CC[C@H](c2ccccc2)C1` [Example 1, (R)-(5-(4-Fluoro-3-hydroxyphenyl)-1,3,4-oxadiazol-2-yl)(3-phenylpyrrolidin-1-yl)methanone], the figures for the IC50 in assay [1], in assay [2] and in assay [3] were 308 nM, 32400 nM and 750 nM, respectively.

In the case of `N#Cc1c(C(=O)N2CCC(c3ccccc3)C2)noc1-c1ccc(F)c(O)c1` (stereo not drawn) [Example 13, 5-(4-Fluoro-3-hydroxyphenyl)-3-(3-phenylpyrrolidine-1-carbonyl)isoxazole-4-carbonitrile], the IC50 came to 40 nM in assay [1], 15600 nM in assay [2] and 460 nM in assay [3].

On to `O=C(c1cc(-c2cc(F)c(F)c(O)c2F)on1)N1CC[C@H](c2ccccc2)C1` [Example 104, (R)-(3-Phenylpyrrolidin-1-yl)(5-(2,4,5-trifluoro-3-hydroxyphenyl)isoxazol-3-yl)methanone], for which the IC50 in assay [1] is 57 nM; in assay [2], 9600 nM; in assay [3], 540 nM.
